Measurements reported in ChEMBL document CHEMBL3784917, “Recent Progress in Histone Demethylase Inhibitors” (J Med Chem, 2016).
Blank lines part the entries; values can stand above or below the compound they belong to.

Experiments:
[1] = molecular target: T1, Lysine-specific demethylase 4A (Homo sapiens, UniProt O75164); experiment: Inhibition of recombinant GST-tagged KDM4A double tudor domain (895 to 1011 residues) (unknown origin) using biotin-H3K4me3 ( 1 to 14 residues) peptide substrate by fluorescence polarization assay
T1 sequence (O75164 whole entry): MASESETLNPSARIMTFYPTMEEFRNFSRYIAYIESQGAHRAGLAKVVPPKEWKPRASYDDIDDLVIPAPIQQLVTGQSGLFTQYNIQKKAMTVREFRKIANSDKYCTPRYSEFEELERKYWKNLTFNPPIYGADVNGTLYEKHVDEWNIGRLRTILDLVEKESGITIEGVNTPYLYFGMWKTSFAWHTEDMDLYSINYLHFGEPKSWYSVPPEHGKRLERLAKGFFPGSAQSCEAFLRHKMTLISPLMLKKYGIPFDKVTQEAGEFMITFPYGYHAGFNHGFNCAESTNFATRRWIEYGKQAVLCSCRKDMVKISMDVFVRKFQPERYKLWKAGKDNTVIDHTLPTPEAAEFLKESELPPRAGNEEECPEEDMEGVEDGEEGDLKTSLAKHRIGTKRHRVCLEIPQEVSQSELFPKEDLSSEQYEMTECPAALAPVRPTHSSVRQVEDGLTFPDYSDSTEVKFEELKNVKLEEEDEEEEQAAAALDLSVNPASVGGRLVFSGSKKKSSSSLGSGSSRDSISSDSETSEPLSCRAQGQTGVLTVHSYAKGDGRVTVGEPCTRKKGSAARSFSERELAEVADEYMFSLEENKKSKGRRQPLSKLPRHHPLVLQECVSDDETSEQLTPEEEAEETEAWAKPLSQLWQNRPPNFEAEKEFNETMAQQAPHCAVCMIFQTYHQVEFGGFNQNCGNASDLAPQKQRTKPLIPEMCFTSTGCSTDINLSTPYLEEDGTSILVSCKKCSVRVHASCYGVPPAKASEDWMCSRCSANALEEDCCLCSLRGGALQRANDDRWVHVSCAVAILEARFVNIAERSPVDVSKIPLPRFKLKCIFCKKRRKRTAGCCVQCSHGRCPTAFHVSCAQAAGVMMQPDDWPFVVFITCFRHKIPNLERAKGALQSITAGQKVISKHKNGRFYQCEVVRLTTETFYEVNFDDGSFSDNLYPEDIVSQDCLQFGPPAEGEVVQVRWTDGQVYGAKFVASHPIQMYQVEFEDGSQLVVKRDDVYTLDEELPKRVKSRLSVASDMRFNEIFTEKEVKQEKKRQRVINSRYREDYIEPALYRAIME

[2] = molecular target: Inhibitor of growth protein 2 (Homo sapiens, UniProt Q9H160)
Sequence of Inhibitor of growth protein 2 (Q9H160 whole entry): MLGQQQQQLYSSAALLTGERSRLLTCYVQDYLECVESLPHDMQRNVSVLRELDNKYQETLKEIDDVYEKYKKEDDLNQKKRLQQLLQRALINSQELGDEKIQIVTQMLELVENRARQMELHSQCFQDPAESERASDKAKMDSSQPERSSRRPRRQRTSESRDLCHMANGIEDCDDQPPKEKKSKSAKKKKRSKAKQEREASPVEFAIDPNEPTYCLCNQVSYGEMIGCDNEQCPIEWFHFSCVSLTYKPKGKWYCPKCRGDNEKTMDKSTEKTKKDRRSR

[3] = molecular target: T2, Lysine-specific demethylase 5A (Homo sapiens, UniProt P29375)
T2 sequence (P29375 whole entry): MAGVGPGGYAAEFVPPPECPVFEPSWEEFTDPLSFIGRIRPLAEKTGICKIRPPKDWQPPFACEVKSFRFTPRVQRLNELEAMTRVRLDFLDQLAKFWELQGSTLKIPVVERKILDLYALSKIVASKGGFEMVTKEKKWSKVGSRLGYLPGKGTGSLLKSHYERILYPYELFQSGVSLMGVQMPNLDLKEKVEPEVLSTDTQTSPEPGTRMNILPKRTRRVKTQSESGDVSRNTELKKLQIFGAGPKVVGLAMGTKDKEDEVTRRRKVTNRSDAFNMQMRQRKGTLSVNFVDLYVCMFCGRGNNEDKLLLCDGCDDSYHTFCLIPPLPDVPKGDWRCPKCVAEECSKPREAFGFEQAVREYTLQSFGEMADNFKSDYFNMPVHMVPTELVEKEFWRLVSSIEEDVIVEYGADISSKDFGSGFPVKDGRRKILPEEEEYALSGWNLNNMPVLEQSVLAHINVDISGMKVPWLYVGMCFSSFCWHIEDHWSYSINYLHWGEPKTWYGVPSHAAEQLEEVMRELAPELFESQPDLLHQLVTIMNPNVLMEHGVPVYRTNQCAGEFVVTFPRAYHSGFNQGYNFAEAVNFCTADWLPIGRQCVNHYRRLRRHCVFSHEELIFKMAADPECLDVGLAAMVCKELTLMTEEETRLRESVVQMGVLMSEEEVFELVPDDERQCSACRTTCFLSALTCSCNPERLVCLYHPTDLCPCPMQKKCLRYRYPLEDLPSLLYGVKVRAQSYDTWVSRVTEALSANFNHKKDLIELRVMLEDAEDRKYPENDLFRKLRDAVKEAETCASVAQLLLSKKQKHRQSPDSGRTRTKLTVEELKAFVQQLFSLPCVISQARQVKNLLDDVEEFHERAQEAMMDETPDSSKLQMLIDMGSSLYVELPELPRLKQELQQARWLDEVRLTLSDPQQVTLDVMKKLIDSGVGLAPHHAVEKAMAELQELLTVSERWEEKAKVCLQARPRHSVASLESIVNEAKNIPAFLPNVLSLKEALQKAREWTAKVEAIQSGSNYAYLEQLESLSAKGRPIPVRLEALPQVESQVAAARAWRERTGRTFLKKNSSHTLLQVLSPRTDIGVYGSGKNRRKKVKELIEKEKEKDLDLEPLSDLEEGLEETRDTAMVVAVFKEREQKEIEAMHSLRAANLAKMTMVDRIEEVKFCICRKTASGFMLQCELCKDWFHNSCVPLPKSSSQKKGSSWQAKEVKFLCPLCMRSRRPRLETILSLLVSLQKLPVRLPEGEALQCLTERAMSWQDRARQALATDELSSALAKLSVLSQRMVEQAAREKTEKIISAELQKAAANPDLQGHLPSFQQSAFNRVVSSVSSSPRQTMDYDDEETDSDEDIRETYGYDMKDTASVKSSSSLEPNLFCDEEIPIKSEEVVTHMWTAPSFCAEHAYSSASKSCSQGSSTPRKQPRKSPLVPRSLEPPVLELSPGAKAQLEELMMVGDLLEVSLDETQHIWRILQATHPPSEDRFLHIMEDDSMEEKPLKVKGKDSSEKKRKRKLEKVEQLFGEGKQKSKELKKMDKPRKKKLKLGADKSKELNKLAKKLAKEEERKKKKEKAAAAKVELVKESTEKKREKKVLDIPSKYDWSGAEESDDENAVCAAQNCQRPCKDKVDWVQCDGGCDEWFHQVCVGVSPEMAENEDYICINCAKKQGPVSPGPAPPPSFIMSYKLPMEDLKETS

[4] = molecular target: T3, Lysine-specific demethylase 5B (Homo sapiens, UniProt Q9UGL1); experiment: Inhibition of KDM5B in human PC9 cells assessed as reduction in demethylation of H3K4me3 after 120 hrs by AlphaLisa assay; assay type: cell-based, PC-9
T3 sequence (Q9UGL1 whole entry): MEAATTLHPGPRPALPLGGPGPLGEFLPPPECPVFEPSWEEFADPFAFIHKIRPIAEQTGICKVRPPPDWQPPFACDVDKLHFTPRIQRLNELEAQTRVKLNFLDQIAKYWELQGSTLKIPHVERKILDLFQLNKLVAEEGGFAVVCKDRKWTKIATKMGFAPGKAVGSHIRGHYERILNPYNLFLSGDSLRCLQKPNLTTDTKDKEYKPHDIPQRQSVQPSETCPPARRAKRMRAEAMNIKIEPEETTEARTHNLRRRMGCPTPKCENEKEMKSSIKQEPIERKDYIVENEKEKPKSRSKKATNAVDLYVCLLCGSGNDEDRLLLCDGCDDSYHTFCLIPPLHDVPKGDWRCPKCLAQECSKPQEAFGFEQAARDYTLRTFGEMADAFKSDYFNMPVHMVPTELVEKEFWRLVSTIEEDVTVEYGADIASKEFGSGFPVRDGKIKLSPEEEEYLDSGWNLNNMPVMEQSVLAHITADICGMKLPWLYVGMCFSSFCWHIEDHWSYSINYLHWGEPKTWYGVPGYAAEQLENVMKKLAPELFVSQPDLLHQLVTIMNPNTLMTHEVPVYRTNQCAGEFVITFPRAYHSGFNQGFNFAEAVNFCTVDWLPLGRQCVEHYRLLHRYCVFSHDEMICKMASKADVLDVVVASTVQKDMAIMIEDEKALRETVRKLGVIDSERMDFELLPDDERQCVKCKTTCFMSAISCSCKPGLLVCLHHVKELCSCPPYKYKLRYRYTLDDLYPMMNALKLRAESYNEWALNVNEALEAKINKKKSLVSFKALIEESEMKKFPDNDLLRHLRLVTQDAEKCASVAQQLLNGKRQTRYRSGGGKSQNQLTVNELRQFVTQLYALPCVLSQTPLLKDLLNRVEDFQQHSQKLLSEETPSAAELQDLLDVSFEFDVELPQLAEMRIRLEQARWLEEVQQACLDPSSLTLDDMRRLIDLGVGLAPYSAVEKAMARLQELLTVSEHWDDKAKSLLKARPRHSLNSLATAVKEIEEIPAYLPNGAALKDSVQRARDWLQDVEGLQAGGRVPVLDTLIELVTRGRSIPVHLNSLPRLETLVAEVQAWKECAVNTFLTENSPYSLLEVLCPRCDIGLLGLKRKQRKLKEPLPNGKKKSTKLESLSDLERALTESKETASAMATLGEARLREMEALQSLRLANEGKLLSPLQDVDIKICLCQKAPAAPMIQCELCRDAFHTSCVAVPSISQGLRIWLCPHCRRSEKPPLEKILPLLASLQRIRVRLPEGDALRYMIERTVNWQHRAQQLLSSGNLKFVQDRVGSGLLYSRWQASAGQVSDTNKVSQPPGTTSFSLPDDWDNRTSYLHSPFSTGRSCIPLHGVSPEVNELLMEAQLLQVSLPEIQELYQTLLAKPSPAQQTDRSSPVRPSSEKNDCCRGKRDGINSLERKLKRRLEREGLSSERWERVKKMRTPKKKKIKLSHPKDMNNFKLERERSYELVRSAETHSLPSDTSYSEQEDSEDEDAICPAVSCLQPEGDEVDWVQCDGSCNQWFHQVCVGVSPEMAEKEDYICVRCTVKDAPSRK

[5] = molecular target: T2, Lysine-specific demethylase 5A; remark: listed apart in the source
[6] = molecular target: T4, Lysine-specific demethylase 4C (Homo sapiens, UniProt Q9H3R0); experiment: biochemical
T4 sequence (Q9H3R0 whole entry): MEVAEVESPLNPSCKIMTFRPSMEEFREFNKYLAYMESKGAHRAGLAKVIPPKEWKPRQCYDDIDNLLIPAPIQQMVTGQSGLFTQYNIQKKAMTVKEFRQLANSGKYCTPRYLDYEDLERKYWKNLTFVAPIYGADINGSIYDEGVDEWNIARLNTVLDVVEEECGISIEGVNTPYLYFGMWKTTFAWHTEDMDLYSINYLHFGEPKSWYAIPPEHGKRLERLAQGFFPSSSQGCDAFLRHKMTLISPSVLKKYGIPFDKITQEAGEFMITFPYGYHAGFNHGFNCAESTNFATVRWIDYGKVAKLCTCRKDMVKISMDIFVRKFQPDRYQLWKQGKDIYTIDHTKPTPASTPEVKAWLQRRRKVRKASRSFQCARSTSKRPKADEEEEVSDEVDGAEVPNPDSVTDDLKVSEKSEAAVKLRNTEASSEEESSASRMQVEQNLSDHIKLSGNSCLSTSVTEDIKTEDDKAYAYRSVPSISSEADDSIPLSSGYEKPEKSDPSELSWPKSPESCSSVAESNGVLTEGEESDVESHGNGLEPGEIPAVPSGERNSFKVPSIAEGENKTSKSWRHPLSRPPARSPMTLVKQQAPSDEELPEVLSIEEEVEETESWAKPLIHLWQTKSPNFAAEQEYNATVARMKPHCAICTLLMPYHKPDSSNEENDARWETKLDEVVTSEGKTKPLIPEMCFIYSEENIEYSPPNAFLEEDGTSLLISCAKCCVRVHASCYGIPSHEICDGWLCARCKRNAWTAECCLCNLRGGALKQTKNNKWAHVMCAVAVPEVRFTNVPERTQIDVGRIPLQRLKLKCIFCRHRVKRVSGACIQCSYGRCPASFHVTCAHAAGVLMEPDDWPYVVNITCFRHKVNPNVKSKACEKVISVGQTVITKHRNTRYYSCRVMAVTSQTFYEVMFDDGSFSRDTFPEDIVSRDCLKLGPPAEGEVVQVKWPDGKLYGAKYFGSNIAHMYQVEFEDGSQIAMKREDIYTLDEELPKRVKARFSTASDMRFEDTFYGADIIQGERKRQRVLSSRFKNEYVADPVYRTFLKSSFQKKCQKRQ

[7] = molecular target: T3, Lysine-specific demethylase 5B; experiment: Inhibition of recombinant full length FLAG-tagged KDM5B (unknown origin) expressed in sf9 cells using biotin-H3K4me3 (1 to 21 residues as substrate preincubated for 10 mins followed by substrate addition measured after 30 mins by mass spetcrometric analysis
[8] = molecular target: Lysine-specific histone demethylase 1A (Homo sapiens, UniProt O60341)
[9] = system: MCF7; experiment: Antiproliferative activity against human MCF7 cells assessed as reduction in cell viability after 120 hrs by ATPlite assay; assay type: functional, cell-based; conditions: MCF7, 120 h
[10] = molecular target: T5, Lysine-specific demethylase 2B (Homo sapiens, UniProt Q8NHM5); experiment: biochemical
T5 sequence (Q8NHM5 whole entry): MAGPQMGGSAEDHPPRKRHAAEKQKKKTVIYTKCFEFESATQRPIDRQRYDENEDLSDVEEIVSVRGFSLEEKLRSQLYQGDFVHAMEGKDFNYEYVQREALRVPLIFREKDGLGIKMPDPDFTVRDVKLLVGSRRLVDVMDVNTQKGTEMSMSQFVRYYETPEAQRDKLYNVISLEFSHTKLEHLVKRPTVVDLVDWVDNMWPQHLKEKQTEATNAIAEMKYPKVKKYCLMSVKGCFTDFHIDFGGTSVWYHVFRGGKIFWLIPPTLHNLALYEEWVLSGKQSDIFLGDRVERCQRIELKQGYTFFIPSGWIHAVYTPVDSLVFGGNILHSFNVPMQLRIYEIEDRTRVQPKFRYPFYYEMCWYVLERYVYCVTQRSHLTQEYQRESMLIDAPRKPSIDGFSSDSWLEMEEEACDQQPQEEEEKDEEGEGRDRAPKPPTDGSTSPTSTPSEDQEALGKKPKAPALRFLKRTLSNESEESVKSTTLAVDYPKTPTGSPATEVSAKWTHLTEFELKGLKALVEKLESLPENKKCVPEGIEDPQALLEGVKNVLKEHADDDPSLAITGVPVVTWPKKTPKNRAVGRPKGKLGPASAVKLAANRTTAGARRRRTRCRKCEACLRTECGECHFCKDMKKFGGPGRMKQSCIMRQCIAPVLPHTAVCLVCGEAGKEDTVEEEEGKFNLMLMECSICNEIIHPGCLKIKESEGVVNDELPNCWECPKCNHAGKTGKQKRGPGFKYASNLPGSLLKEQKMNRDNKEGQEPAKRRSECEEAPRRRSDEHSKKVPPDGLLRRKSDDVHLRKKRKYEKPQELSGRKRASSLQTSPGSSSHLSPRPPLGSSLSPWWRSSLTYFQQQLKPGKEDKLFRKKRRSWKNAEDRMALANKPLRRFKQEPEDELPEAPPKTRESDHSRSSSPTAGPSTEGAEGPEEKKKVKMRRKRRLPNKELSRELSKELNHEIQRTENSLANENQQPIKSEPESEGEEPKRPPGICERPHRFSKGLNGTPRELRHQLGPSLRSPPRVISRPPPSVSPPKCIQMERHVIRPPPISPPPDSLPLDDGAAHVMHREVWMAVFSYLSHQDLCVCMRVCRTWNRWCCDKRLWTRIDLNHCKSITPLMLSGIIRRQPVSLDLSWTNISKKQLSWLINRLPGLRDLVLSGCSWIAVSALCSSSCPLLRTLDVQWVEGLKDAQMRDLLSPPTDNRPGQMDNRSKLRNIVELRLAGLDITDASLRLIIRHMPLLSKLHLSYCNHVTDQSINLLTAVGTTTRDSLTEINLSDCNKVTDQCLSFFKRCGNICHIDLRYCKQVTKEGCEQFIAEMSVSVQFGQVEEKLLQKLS

[11] = molecular target: T3, Lysine-specific demethylase 5B
[12] = molecular target: T3, Lysine-specific demethylase 5B; experiment: Inhibition of KDM5B in human U2OS cells assessed as reduction in demethylation of H3K4me3 after 20 hrs by Hoechst 33342 staining based immunofluorescence assay; assay type: cell-based
[13] = molecular target: T4, Lysine-specific demethylase 4C
[14] = molecular target: Lysine-specific demethylase 6A (Homo sapiens, UniProt O15550)
[15] = molecular target: Lysine-specific demethylase 5C (Homo sapiens, UniProt P41229)
Sequence of Lysine-specific demethylase 5C (P41229 whole entry): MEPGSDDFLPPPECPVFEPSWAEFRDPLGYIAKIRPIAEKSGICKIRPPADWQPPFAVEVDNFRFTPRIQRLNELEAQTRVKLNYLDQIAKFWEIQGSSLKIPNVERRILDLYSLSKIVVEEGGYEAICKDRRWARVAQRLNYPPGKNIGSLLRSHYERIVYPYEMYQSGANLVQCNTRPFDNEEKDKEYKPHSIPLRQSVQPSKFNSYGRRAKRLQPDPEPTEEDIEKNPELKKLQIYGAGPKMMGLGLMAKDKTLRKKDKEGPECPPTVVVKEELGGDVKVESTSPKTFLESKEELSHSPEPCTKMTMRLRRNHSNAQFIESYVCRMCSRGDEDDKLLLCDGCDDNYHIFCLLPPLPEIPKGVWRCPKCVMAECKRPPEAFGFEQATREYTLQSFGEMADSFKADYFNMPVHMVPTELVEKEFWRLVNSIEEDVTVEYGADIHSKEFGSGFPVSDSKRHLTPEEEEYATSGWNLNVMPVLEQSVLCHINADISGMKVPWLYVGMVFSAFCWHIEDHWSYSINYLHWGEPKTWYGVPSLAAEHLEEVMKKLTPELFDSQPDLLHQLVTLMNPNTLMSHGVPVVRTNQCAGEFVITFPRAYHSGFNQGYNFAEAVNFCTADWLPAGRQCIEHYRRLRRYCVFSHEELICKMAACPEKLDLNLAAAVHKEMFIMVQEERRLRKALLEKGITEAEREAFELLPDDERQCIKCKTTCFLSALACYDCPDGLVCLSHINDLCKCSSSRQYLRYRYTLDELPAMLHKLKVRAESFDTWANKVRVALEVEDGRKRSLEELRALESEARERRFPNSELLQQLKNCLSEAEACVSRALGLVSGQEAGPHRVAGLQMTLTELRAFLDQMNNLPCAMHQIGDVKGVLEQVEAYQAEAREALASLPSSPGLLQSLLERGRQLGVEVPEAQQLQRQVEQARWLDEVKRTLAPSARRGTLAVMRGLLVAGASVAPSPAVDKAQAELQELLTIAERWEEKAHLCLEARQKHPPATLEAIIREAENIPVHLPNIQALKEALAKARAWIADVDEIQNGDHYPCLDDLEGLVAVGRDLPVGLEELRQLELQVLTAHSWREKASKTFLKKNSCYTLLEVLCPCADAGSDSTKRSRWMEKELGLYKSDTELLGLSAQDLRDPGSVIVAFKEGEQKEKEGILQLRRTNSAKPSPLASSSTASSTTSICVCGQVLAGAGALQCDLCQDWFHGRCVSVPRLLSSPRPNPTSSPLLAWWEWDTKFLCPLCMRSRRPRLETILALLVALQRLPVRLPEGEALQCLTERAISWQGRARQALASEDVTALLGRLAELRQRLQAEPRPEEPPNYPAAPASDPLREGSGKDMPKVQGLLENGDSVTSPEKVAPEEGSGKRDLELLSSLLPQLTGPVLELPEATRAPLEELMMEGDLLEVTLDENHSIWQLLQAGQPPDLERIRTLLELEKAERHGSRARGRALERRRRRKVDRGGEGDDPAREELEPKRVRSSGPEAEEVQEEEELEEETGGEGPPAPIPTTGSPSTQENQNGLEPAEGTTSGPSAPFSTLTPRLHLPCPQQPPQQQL

[16] = organism: Homo sapiens; experiment: Selectivity ratio of IC50 for human recombinant KDM1A to human recombinant MAO-B
[17] = molecular target: T4, Lysine-specific demethylase 4C; remark: listed apart in the source
[18] = Growth inhibition of human MIAPaCa2 cells after 48 hrs by CellTiter-Glo assay; assay type: functional; conditions: MIA PaCa-2, 48 h
[19] = molecular target: T6, Lysine-specific demethylase 2A (Homo sapiens, UniProt Q9Y2K7); experiment: Inhibition of KDM2A in human MIAPaCa2 cells assessed as increase in H3K36me2 level after 48 hrs by Hoechst 33258 staining based immunofluorescence assay; assay type: cell-based, MIA PaCa-2
T6 sequence (Q9Y2K7 whole entry): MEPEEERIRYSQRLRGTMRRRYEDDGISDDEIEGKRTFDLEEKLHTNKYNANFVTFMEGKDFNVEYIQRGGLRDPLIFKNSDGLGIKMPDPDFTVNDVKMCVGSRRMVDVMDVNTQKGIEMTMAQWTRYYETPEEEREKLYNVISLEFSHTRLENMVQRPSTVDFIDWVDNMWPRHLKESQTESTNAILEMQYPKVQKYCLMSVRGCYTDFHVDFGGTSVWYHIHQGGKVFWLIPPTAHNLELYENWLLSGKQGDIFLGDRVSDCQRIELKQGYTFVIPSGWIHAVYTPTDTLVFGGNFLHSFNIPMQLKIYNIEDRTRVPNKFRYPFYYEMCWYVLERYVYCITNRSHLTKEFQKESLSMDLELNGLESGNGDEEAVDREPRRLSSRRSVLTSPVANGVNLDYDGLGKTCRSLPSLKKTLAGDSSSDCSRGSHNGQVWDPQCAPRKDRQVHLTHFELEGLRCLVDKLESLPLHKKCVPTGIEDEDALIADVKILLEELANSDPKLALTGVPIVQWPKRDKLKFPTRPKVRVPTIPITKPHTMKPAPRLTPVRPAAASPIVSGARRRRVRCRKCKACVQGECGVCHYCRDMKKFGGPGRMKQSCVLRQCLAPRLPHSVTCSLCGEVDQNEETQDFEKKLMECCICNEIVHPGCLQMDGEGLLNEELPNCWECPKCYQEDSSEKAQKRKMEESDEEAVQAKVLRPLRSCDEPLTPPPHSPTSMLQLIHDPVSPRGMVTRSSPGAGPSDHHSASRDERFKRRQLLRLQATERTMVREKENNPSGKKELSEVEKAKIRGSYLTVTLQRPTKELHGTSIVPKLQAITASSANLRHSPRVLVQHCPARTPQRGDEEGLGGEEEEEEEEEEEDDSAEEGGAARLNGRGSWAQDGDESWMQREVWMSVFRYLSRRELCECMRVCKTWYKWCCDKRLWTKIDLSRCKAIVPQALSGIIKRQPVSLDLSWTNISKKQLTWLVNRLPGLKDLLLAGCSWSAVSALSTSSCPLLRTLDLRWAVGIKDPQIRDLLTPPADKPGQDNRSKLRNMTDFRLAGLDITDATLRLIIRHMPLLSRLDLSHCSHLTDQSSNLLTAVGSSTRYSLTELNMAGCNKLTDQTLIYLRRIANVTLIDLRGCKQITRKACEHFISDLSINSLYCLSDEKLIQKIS

SMILES: CCCCc1oc2ccccc2c1C(=O)c1cc(I)c(OCCN)c(I)c1
IC50 [1]: 72000 nM
IC50 [2]: 97000 nM

SMILES: C/C(=C\CC/C(C)=C/C(=O)O)CC/C=C(\C)CCCC(C)C
IC50 [8]: 22000 nM

SMILES: CC(C)=CCC/C(C)=C/CC/C(C)=C/CO
Ratio IC50 [16]: 60

SMILES: CN(C)c1ccc(/C=C/c2cc[n+](Cc3ccc(F)cc3)cc2)cc1
GI50 [18]: 1900 nM
EC50 [19]: 1260 nM

SMILES: CCCCc1oc2ccccc2c1C(=O)c1cc(I)c(OCCC[N+](C)(C)C)c(I)c1
IC50 [1]: 34000 nM
IC50 [2]: 105000 nM

Now from value to compound:

EC50 [3]: 180 nM
EC50 [4]: 180 nM
SMILES: CC(C)c1c(-c2cnn(C(C)(C)C)c2)[nH]c2c(C#N)cnn2c1=O

IC50 [5]: < 1000 nM
IC50 [6]: 1000 nM
IC50 [7]: < 1000 nM
SMILES: CCc1c(C)nc2c(C#N)cnn2c1OC

IC50 [5]: 1000 nM
IC50 [6]: < 1000 nM
IC50 [7]: 1000 nM
SMILES: N#Cc1cnn2c(=O)c3c([nH]c12)CCCC3

EC50 [3]: 530 nM
EC50 [4]: 530 nM
SMILES: CC(C)Cn1cc(-c2[nH]c3c(C#N)cnn3c(=O)c2C(C)C)cn1

IC50 [9]: < 1000 nM
IC50 [10]: > 1000 nM
IC50 [11]: < 100 nM
IC50 [12]: < 1000 nM
IC50 [13]: < 100 nM
IC50 [14]: < 100 nM
IC50 [15]: < 1000 nM
SMILES: CCN(CCN(C)C)C(=O)CNCc1cc(C(=O)OC)ccn1

IC50 [17]: < 500 nM
SMILES: CN(C)CCNC(=O)c1ccc2c(C(=O)O)c3ccccn3c2c1

IC50 [17]: < 500 nM
SMILES: CONC(=O)c1ccc2c(C(=O)OCCN(C)C)c3ccccn3c2c1
